Columns and labels:
[1] = test system: cytoadherence of P. falciparum parasitised red cells to C32 melanoma cells; test: C32 melanoma cell cytoadherence assay with SNO-cysteine-treated parasitised red cells; type: cell-based, Plasmodium falciparum; details: Expt 5: JR strain, SNO-cysteine final concentration 5 mM, 40 minutes, parasitised red cells resuspended in 2% w/v borate
VCAM-1 = details: 0.2 mmol/l, 24 hours in conjunction with IL-1; cited from earlier work
endothelial cells = details: 0.2 mmol/l, 24 hours in conjunction with IL-1; cited from earlier work

Row | SMILES | binding (cytoadherence to C32 melanoma cells) [1] [%] | inhibition of VCAM-1 (VCAM-1) | endothelial toxicity (endothelial cells)
1 | N[C@@H](CSN=O)C(=O)O [SNO-cysteine] | 0 |  | 
2 | N[C@@H](CCC(=O)N[C@@H](CSN=O)C(=O)NCC(=O)O)C(=O)O [SNO-glutathione] |  | maximal inhibition of VCAM-1 | minimal endothelial toxicity

— patent US7179615B1 (priority 1997, dated 2007)
